Consider 1 substance from patent US20060040870A1, “Enhancement of apoptosis by caspase-9 inhibitors” (priority 2004, published 2006).

The star is where a group is joined. Cbz = O=C(OCc1ccccc1)*; CH2F = FC*

What all share (assay type): cell-based, human
One assay concerns CD19+ B-cell precursors. As to the kind of experiment: Annexin V staining of sorted cord blood-derived CD19+ B-cell precursors removed from MS-5 stroma. Particulars: cultured 18 hours, DMSO control 46.5 ± 1.4, Time 0 1.5. The method, then: Normal B-lineage cells. CD19+ B-lineage cells were derived from CD34+ human cord blood stem cells plated on the murine stromal cell line MS-5 (Itoh Exp Hematol. 1989;17:145-153). MS-5 stromal cells were kindly provided by Dr. Paul Kincade (University of Oklahoma Medical Research Foundation), following permission from Professor K. John Mori (Niigata University, Japan). FACS-purified CD34+/CD38+/lineage—cord blood hematopoietic stem cells were plated onto confluent, non-irradiated MS-5 stromal cells in 96-well flat-bottom plates (200 cells/well) containing Minimal Essential Medium supplemented with 10% FBS. Stem cell factor and G-CSF were added at 10 ng/ml (twice weekly) to enhance the emergence of CD19+ B-lineage cells (Nishihara Eur J Immunol. 1998;28:855-864; Ohkawara Leukemia. 1998;12:764-771). […] Wells were then pooled, stained with PE-conjugated anti-CD 19 + propidium iodide (PI), and sorted on a FACSVantage (BD Immunocytometry Systems, San Jose, Calif.). Cord blood CD34+/CD38+/lineage—cells were provided by Valerie McCullar and Dr. Jeff Miller of the University of Minnesota Cancer Center in accordance with the University of Minnesota Institutional Review Board on Human Subjects.
Flow cytometry. Quantitation of apoptotic events was conducted using a FACS Calibur (BD Immunocytometry Systems). […]

The next assay has as its system BLIN-3 cells. The experiment in a line: Apoptosis by Annexin V staining and flow cytometry, BLIN-3. How it is done: (§1) Flow cytometry. Quantitation of apoptotic events was conducted using a FACS Calibur (BD Immunocytometry Systems). All analyses were conducted on cells with lymphoid light scatter characteristics (i.e., low to medium forward scatter and low 90° side scatter).
(§2) iii. Annexin V. FITC-labeled Annexin V (BD Pharmingen, San Diego, Calif.) was used to detect external phosphatidylserine residues appearing on the external surface of early apoptotic cells (Koopman Blood. 1994;84:1415-1420). Cells were stained according to the manufacturers recommendations.
(§3) General experimental strategy. BLIN cell lines were removed from fibroblast monolayers, washed once and resuspended to 7.5×10^5/ml in X-VIVO 10. Two hundred μL of resuspended cells were added to 96-well flat-bottom microtiter plates (ISC Bioexpress, Kaysville, Vt.), followed by 0.5-1.0 μL of caspase inhibitors in DMSO. An identical volume of DMSO alone was added to separate wells as a vehicle control. This final DMSO concentration of 0.25-0.5% vol/vol had no adverse affect on any of the BLIN cell lines. At the indicated times the entire content of individual wells was harvested and stained in the fluorescent protocols described above.
The inventors carried out experiments to test the influence of specific amino acid substitutions on the proapoptotic activity Z-LEHD-fmk. Cells were cultured for 24 hours with various μM concentrations of Z-LEDH-fmk or single amino acid substitution of the parent peptide. All values in the following Table 3 represent the percentage of total Annexin V+ cells (PI+ and PI−) minus the percentage present in culture with DMSO alone (BLIN-2=3%; BLIN-3+7%; BLIN4L=5%).
On the technique in general: A flow cytometer gives signals particle by particle.

In another assay the test system is BLIN-4L cells. The experiment in a line: Apoptosis by Annexin V staining and flow cytometry, BLIN-4L. Conditions: 50 μM. The method, then: as §1, §2, §3
The inventors carried out experiments to test the influence of specific amino acid substitutions on the proapoptotic activity Z-LEHD-fmk. […]

Assay [1] has as its system RAMOS Burkitt lymphoma cell line. As to the kind of experiment: Apoptosis by Annexin V staining and flow cytometry, RAMOS. Particulars: 50 μM, 18 hours.
The subject of assay [2] is PARP (caspase-3/caspase-7 substrate). As to the kind of experiment: Western blotting of PARP cleavage in BLIN-3 and BLIN-4L. Conditions: overnight incubation of BLIN-3 and BLIN-4L cells, 50 μM. The method, then: Western blotting. This method was conducted essentially as previously described.^20 The antibodies used were: rabbit anti-caspase-2 (catalog # sc-625, Santa Cruz Biotechnology Inc., Santa Cruz, Calif.), rabbit anti-caspase-3 (catalog # 9661, Upstate Cell Signaling Solutions, Waltham, Mass.), rabbit anti-caspase-6 (catalog # 9761, Upstate), rabbit anti-caspase-9 (catalog # 9502, Upstate), mouse anti-PARP (catalog # 556494, Pharmingen), and rabbit anti-Bid (catalog # AF846, R&D Systems). The antibodies to caspase-2 and caspase-9 were generated to the procaspase isoforms, whereas the antibodies to caspase-3 and caspase-6 were generated to cleavage products.
As expected, inclusion of 50 μM PCi had no effect. The degree of PARP cleavage in the presence of C9i (greater in BLIN-3 than BLIN-4L) correlated with the percentage of Annexin V+ cells (FIG. 3).
For orientation: A western blot detects proteins with antibodies after separation by electrophoresis.

In a further assay the test system is BLIN cell lines. The experiment in a line: Enhancement of apoptosis in BLIN cell lines (flow cytometry). The method, then:
as §1
i. Mitochondrial transmembrane potential (Δψm). The cationic lipophilic fluorescent dye tetramethylrhodamine, ethyl ester, perchlorate (TMRE) was purchased from Molecular Probes, Inc. (Eugene, Oreg.). TMRE has a high degree of membrane permeability and accumulates into mitochondria in accord with the Nernstian equation (Farkas Biophys J. 1989;56:1053-1069). Cells were washed once and re-suspended to 0.5-1.0×10^6/ml in X-VIVO 10. TMRE was added to a final concentration of 50 nM and the cells were incubated in the dark at 37° C. for 15 minutes. Cells were then washed 2× in PBS, resuspended in PBS containing 2 μg/ml of propidium iodide (PI), and immediately analyzed. The protonophore […] (50 μM, CCCP, Sigma) was used as a positive control to effect loss of Δψm in 100% of cells.
ii. YO-PRO-1. The green fluorescent DNA intercalant dye YO-PRO-1 (Idziorek J Immunol Methods. 1995;185:249-258) was purchased from Molecular Probes as the Vybrant Apoptosis Assay Kit #4. Dual staining with YO-PRO and PI allows for the detection of early apoptotic cells (YO-PRO+/PI−) that have undergone initial changes in permeability to small molecules. Cells were stained according to the manufacturers recommendations.
as §2, §3

As for “Z-LEHD-fmk (Cbz-LEHD-CH2F; SMILES CC(C)C[C@H](NC(=O)OCc1ccccc1)C(=O)N[C@@H](CCC(=O)O)C(=O)N[C@@H](Cc1c[nH]cn1)C(=O)N[C@@H](CC(=O)O)C(=O)CF) [C9i]”, the “percentage of total Annexin V+ cells (PI+ and PI−), mean ± SD” value in the assay with CD19+ B-cell precursors was 56.0 ± 3.2 %. In addition, the “sensitivity (fold-increase in Annexin V+ cells vs DMSO)” value is “sensitive” with BLIN-3 cells (BLIN-3, 50 μM, 18 hours); “sensitive” with BLIN-4L cells (BLIN-4L, 18 hours); “extremely sensitive” in assay [1]. For the same substance, the “apoptosis (Annexin V and TMRE staining) versus DMSO vehicle” value in the assay on BLIN-3 cells (BLIN-3 removed from adherent fibroblasts, 50 μM, 2-hour time points up to 8 hours) is “pronounced enhancement of apoptosis”; in the assay on BLIN-4L cells (BLIN-4L removed from adherent fibroblasts, 2-hour time points up to 8 hours), “promoted apoptosis in BLIN-4L, albeit not as pronounced as in BLIN-3”. Besides, the “cleavage of the caspase-3/caspase-7 substrate PARP” value in assay [2] is “led to cleavage”. The “lowest concentration at which enhancement of apoptosis occurred” value with BLIN cell lines came to 6.25 µM. The “promotion of apoptosis in healthy cells” value with BLIN cell lines (BLIN-3 and BLIN-4L maintained on adherent fibroblasts and/or IL-7, 8 hours) is “did not promote apoptosis”; in the assay with BLIN cell lines (BLIN-3 and BLIN-4L maintained on adherent fibroblasts and/or IL-7, 18 hours), “promoted apoptosis”.
